Tested on: 941728-121-R-J1-PDC complex spheroid viability
Assay: Anticancer human tumor 941728-121-R-J1-PDC patient-derived lung adenocarcinoma cell line growth inhibition [RAS]
Settings: for IC50: curve of first compound; for viability, T/C: stronger effect = lower value
How it was run: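 Agents were tested in combination matrices in half-log decrements from a top concentration at or near clinical Cmax (10 microM if undetermined). Targets were multi-cell spheroids of tumour lines plus HUVEC and MSC stromal cells.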

[1] = second compound 0.000949 µM, first compound 0.0316 µM
[2] = second compound 0.000949 µM, first compound 0.1 µM
[3] = second compound 0.000949 µM, first compound 0.316 µM
[4] = second compound 0.000949 µM, first compound 1 µM
[5] = second compound 0.003 µM, first compound 0.0316 µM
[6] = second compound 0.003 µM, first compound 0.1 µM
[7] = second compound 0.003 µM, first compound 0.316 µM
[8] = second compound 0.003 µM, first compound 1 µM
[9] = second compound 0.00949 µM, first compound 0.0316 µM
[10] = second compound 0.00949 µM, first compound 0.1 µM
[11] = second compound 0.00949 µM, first compound 0.316 µM
[12] = second compound 0.00949 µM, first compound 1 µM
[13] = second compound 0.03 µM, first compound 0.0316 µM
[14] = second compound 0.03 µM, first compound 0.1 µM
[15] = second compound 0.03 µM, first compound 0.316 µM
[16] = second compound 0.03 µM, first compound 1 µM
[17] = second compound 0.0949 µM, first compound 0.0316 µM
[18] = second compound 0.0949 µM, first compound 0.1 µM
[19] = second compound 0.0949 µM, first compound 0.316 µM
[20] = second compound 0.0949 µM, first compound 1 µM
[21] = second compound 0.3 µM, first compound 0.0316 µM
[22] = second compound 0.3 µM, first compound 0.1 µM
[23] = second compound 0.3 µM, first compound 0.316 µM
[24] = second compound 0.3 µM, first compound 1 µM
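Further: spheroids exposed to compounds for 7 days before readout.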
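Wherever viability, T/C is given: 100% = DMSO vehicle control viability.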

NC1c2ccccc2OC12CCN(c1cnc3c(N4CCCc5ncccc54)n[nH]c3n1)CC2 (centres undefined) + CCn1c(-c2cccnc2C(C)OC)c2c3cc(ccc31)N1CCOC(CC(NC(=O)C(C(C)C)N(C)C(=O)C3(F)CCN(C(=O)C#CC(C)(C)N(C)C)CC3)C(=O)N3CCCC(N3)C(=O)OCC(C)(C)C2)C1
IC50 (second compound 0.000949 µM): < 31.6 nM | IC50 (second compound 0.003 µM): < 31.6 nM | IC50 (second compound 0.00949 µM): < 31.6 nM | IC50 (second compound 0.03 µM): < 31.6 nM | IC50 (second compound 0.0949 µM): < 31.6 nM | IC50 (second compound 0.3 µM): < 31.6 nM | viability, T/C [1]: 18.5% | viability, T/C [2]: 17.7% | viability, T/C [3]: 12.8% | viability, T/C [4]: 17.6% | viability, T/C (second compound 0.000949 µM, first compound 3.16 µM): 16.6% | viability, T/C (second compound 0.000949 µM, first compound 10 µM): 13.9% | viability, T/C [5]: 16.5% | viability, T/C [6]: 15.7% | viability, T/C [7]: 15.1% | viability, T/C [8]: 15.9% | viability, T/C (second compound 0.003 µM, first compound 3.16 µM): 17.1% | viability, T/C (second compound 0.003 µM, first compound 10 µM): 13.5% | viability, T/C [9]: 17.8% | viability, T/C [10]: 15.3% | viability, T/C [11]: 17.9% | viability, T/C [12]: 18.3% | viability, T/C (second compound 0.00949 µM, first compound 3.16 µM): 16.7% | viability, T/C (second compound 0.00949 µM, first compound 10 µM): 15.4% | viability, T/C [13]: 19.2% | viability, T/C [14]: 17.6% | viability, T/C [15]: 18.8% | viability, T/C [16]: 17.1% | viability, T/C (second compound 0.03 µM, first compound 3.16 µM): 16.1% | viability, T/C (second compound 0.03 µM, first compound 10 µM): 20.3% | viability, T/C [17]: 19.7% | viability, T/C [18]: 19.4% | viability, T/C [19]: 19% | viability, T/C [20]: 18.9% | viability, T/C (second compound 0.0949 µM, first compound 3.16 µM): 16% | viability, T/C (second compound 0.0949 µM, first compound 10 µM): 20.2% | viability, T/C [21]: 20.2% | viability, T/C [22]: 20.5% | viability, T/C [23]: 20.8% | viability, T/C [24]: 18.2% | viability, T/C (second compound 0.3 µM, first compound 3.16 µM): 18.6% | viability, T/C (second compound 0.3 µM, first compound 10 µM): 22.6%

Nc1ccn(C2OC(CO)C(O)C2(F)F)c(=O)n1 (centres undefined) + CCn1c(-c2cccnc2C(C)OC)c2c3cc(ccc31)N1CCOC(CC(NC(=O)C(C(C)C)N(C)C(=O)C3(F)CCN(C(=O)C#CC(C)(C)N(C)C)CC3)C(=O)N3CCCC(N3)C(=O)OCC(C)(C)C2)C1
IC50 (second compound 0.000949 µM): < 3.16 nM | IC50 (second compound 0.003 µM): < 3.16 nM | IC50 (second compound 0.00949 µM): < 3.16 nM | IC50 (second compound 0.03 µM): < 3.16 nM | IC50 (second compound 0.0949 µM): < 3.16 nM | IC50 (second compound 0.3 µM): < 3.16 nM | viability, T/C (second compound 0.000949 µM, first compound 0.00316 µM): 23.9% | viability, T/C (second compound 0.000949 µM, first compound 0.01 µM): 20.1% | viability, T/C [1]: 18.7% | viability, T/C [2]: 18.2% | viability, T/C [3]: 19.5% | viability, T/C [4]: 15.3% | viability, T/C (second compound 0.003 µM, first compound 0.00316 µM): 22% | viability, T/C (second compound 0.003 µM, first compound 0.01 µM): 18% | viability, T/C [5]: 16.9% | viability, T/C [6]: 19.5% | viability, T/C [7]: 18.4% | viability, T/C [8]: 13.2% | viability, T/C (second compound 0.00949 µM, first compound 0.00316 µM): 22.1% | viability, T/C (second compound 0.00949 µM, first compound 0.01 µM): 15.5% | viability, T/C [9]: 18.8% | viability, T/C [10]: 18.2% | viability, T/C [11]: 20.9% | viability, T/C [12]: 17% | viability, T/C (second compound 0.03 µM, first compound 0.00316 µM): 20.4% | viability, T/C (second compound 0.03 µM, first compound 0.01 µM): 20.4% | viability, T/C [13]: 21.4% | viability, T/C [14]: 17.4% | viability, T/C [15]: 14.5% | viability, T/C [16]: 17.7% | viability, T/C (second compound 0.0949 µM, first compound 0.00316 µM): 21.6% | viability, T/C (second compound 0.0949 µM, first compound 0.01 µM): 22.1% | viability, T/C [17]: 20.1% | viability, T/C [18]: 17.6% | viability, T/C [19]: 19.5% | viability, T/C [20]: 16.7% | viability, T/C (second compound 0.3 µM, first compound 0.00316 µM): 20.3% | viability, T/C (second compound 0.3 µM, first compound 0.01 µM): 20.6% | viability, T/C [21]: 17.6% | viability, T/C [22]: 18.1% | viability, T/C [23]: 16.6% | viability, T/C [24]: 19.2%

— PubChem BioAssay AID2060896 (Molecular Pharmacology Branch, DTP, NCI, 2025)
